We go through 13 compounds from ChEMBL document CHEMBL4819155, “Phenolic compounds from the leaves of Crataegus pinnatifida Bge. var. major N.E.Br. And their lipid-lowering effects” (2021).

Active and inactive are the calls of the source. No cut-off for these calls is given here.

The test system of assay [1] is HepG2. Put plainly: Hypolipidemic activity against oleic acid/palmitic acid-induced hyperlipidemia in human HepG2 cells assessed as reduction in triglycerides content. It is filed as functional, cell-based.
Assay [2] deals with HepG2. Kind of assay: Hypolipidemic activity against oleic acid/palmitic acid-induced hyperlipidemia in human HepG2 cells assessed as decrease in triglycerides level at 0.01 to 1 uM. The assay is classed as functional, cell-based. The settings on record: dose 0.01-1 µM.
Assay [3] has as its system HepG2. Kind of assay: Hypolipidemic activity against oleic acid/palmitic acid-induced hyperlipidemia in human HepG2 cells assessed as reduction in triglycerides content relative to control group. It is filed as functional.
The test system of assay [4] is HepG2. Kind of assay: Hypolipidemic activity against oleic acid/palmitic acid-induced hyperlipidemia in human HepG2 cells assessed reduction in total cholesterol level at 0.001 to 10 uM. The settings on record: dose 0.001-10 µM. It is filed as functional, cell-based.
The subject of assay [5] is HepG2. Kind of assay: Hypolipidemic activity against oleic acid/palmitic acid-induced hyperlipidemia in human HepG2 cells assessed as triglycerides content measured per gm of protein. The assay is classed as functional.
In assay [6] the test system is HepG2. Kind of assay: Hypolipidemic activity against oleic acid-induced lipid accumulation in human HepG2 cell model assessed reduction in total cholesterol level. The assay is classed as functional, cell-based.
Assay [7] relates to HepG2. Kind of assay: Hypolipidemic activity against oleic acid/palmitic acid-induced hyperlipidemia in human HepG2 cells assessed as decrease in triglycerides level at 0.001 to 10 uM. It is filed as functional, cell-based. The settings on record: dose 0.001-10 µM.
Assay [8] relates to HepG2. Kind of assay: Hypolipidemic activity against oleic acid/palmitic acid-induced hyperlipidemia in human HepG2 cells assessed as decrease in triglycerides level at 0.001 to 1 uM. It is filed as functional, cell-based. The following applies: dose 0.001-1 µM.
The subject of assay [9] is HepG2. Put plainly: Hypolipidemic activity against oleic acid/palmitic acid-induced hyperlipidemia in human HepG2 cells assessed reduction in total cholesterol level at 10 uM. The assay is classed as functional, cell-based.

In the case of `Oc1cc(O)c2c(c1)O[C@H](c1ccc(O)c(O)c1)[C@H](O)C2`, in assay [1], the outcome was Active.
The same measure, in the same setting: the value for `Oc1cc(O)c2c(c1)O[C@H](c1ccc(O)c(O)c1)[C@@H](O)C2` was “Active”.
The term inhibition denotes the change of the read-out against control, counted positive when it falls. Consider `O=c1cc(-c2ccc(O)cc2)oc2c([C@@H]3O[C@H](CO)[C@@H](O)[C@H](O)[C@H]3O)c(O)cc(O)c12`, for which the Activity result in assay [2] is “Dose-Dependent Effect”; in assay [4], “Dose-Dependent Effect”; in [5], 0.283 mmol. The inhibition in assay [3] (dose or concentration not given here) is 34.6%.
On to `COc1cc(CO[C@@H]2O[C@H](CO)[C@@H](O)[C@H](O)[C@H]2O)cc(OC)c1OC`, for which the result in assay [1] was Active.
As to `CCC(C)(C)C(=O)O[C@H]1C[C@@H](C)C=C2C=C[C@H](C)[C@H](CC[C@@H]3C[C@@H](O)CC(=O)O3)[C@H]21`, the result in [1] and in [6] was Active.
As to `O=c1c(O)c(-c2ccc(O)c(O)c2)oc2cc(O)cc(O)c12`, the outcome in assay [1] was Active.
On the same count and under the same terms, in the case of `O=C1C[C@@H](c2ccc(O)c(O)c2)c2c(cc3c(c2O)C[C@@H](O)[C@@H](c2ccc(O)c(O)c2)O3)O1` it was “Active”.
On to `O=c1c(O[C@@H]2O[C@H](CO)[C@@H](O)[C@H](O)[C@H]2O)c(-c2ccc(O)c(O)c2)oc2cc(O)cc(O)c12` [ISOQUERCETIN], for which, in assay [3], the “inhibition (INH)” value came to 30.42%. The outcome in [7] was Active. Besides, the outcome in [6] was inactive. Further, in assay [5], the Activity is recorded as 0.308 mmol.
Consider `O=C(/C=C/c1ccc(O)c(O)c1)O[C@@H]1C[C@](O)(C(=O)O)C[C@@H](O)[C@H]1O`, for which, in assay [1], the outcome was Active.
Still for that read-out and setting: in the case of `O=c1c(O[C@@H]2O[C@H](CO)[C@H](O)[C@H](O)[C@H]2O)c(-c2ccc(O)c(O)c2)oc2cc(O)cc(O)c12` it was “Active”.
For the compound `O=C1C[C@@H](c2ccc(O)c(O)c2)c2c(cc(O)c3c2O[C@H](c2cc(O)cc(O)c2)[C@H](O)C3)O1`, the “inhibition (INH)” value in assay [3] turned out to be 34.92%. Also, the Activity entry in assay [8] is “Dose-Dependent Effect”; in [4], “Dose-Dependent Effect”; in [5] it was 0.28 mmol.
Take `C[C@@H]1O[C@@H](O[C@@H]2[C@@H](O)[C@H](O)[C@@H](CO)O[C@H]2c2c(O)cc(O)c3c(=O)cc(-c4ccc(O)cc4)oc23)[C@H](O)[C@H](O)[C@H]1O`: in [1], the outcome was Active.
`O=c1cc(-c2ccc(O)cc2)oc2c([C@@H]3O[C@H](CO)[C@@H](O[C@@H]4O[C@H](CO)[C@@H](O)[C@H](O)[C@H]4O)[C@H](O)[C@H]3O)c(O)cc(O)c12`: the “inhibition (INH)” value in assay [3] is given as 35.34%. The outcome in assay [9] and in assay [7] was Active. Also, in assay [5], the Activity stood at 0.28 mmol.
